Experiments:
purified human TG2 = biological target: T1, purified human TG2 (Homo sapiens, UniProt P21980); assay: Native PAGE of TG2 conformation; assay type: biochemical; settings: NC9 120 μM, VA4 40 μM, VA5 40 μM with calcium, 90 min
T1 sequence (P21980 1-687): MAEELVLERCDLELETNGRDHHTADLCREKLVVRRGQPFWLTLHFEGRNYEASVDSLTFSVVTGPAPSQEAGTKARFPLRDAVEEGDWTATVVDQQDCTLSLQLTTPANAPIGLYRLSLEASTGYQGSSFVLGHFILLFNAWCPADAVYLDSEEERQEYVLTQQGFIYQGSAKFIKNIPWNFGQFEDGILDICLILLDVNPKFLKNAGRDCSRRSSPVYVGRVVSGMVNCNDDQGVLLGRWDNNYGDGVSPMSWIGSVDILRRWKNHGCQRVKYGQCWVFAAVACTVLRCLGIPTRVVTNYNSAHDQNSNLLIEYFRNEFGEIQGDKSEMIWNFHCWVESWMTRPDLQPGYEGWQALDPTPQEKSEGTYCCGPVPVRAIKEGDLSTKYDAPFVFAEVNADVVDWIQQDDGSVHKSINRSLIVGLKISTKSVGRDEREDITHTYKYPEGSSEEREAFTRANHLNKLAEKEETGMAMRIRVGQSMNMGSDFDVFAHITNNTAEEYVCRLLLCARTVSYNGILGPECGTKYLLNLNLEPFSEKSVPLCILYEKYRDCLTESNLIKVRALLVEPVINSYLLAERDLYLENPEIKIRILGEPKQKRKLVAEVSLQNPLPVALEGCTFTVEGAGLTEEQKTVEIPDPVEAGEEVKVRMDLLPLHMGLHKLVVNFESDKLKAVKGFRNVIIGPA
Method: Following this incubation, samples were run on polyacrylamide gel under non-denaturing conditions and in the presence of […] and magnesium. The gel was Coomassie stained and a picture of the gel is shown.
Native PAGE. Native gel electrophoresis experiments were performed using a method similar to those described previously (Begg, G. E. et al., Proc. Natl. Acad. Sci. U.S.A. 103: 19683-19688, 2006; Pinkas, D. M. et al., PLoS Biol. 5: e327, 2007). Briefly, TG2 or inhibited TG2 (2.5 μM) was incubated for 1.5 h at room temperature in pre-incubation buffer (50 mM Tris, 5 mM DTT, 0.5 mM EDTA) at pH 7.0 with or without 100 μM GTP/1.0 mM MgCl2 or 5.0 mM CaCl2. Laemmli native loading buffer was added (1:1) and 1.5 μg of TG2 was loaded onto a 4-20% Tris-HCl ReadyGel (Bio-Rad) using Tris-glycine as the running buffer with 100 μM GTP/1.0 mM MgCl2. For 90 min, 120 V was applied at 4° C. The gel was stained with 0.5% Coomassie brilliant blue R-250 in 40% methanol/10% acetic acid and destained in 10% methanol/10% acetic acid.

endogenous TG2 = biological target: T2, endogenous TG2 (Homo sapiens, UniProt P21980); assay: TG2 GTP-agarose pull-down assay, HaCaT cells; assay type: cell-based; settings: 48 h
T2 construct: endogenous in cells; host or cells: HaCaT
T2 sequence (P21980 1-687): T1 sequence (P21980 1-687)
Method: HaCaT cells were electroporated with mCer-TG2 or mCer-TG2-YAP and then treated with 0 or 5 μM of the indicated inhibitor and fluorescent lifetime was monitored. […] HaCaT cells were preloaded with fluorescein cadaverine, treated with the indicated inhibitor and then challenged with calcium ionophore, washed and assayed for FC incorporation. […] HaCaT were incubated for 48 h with the indicated inhibitor and extracts were prepared and incubated with GTP-agarose beads to measure TG2 binding to GTP agarose. The beads were then washed, boiled in Laemmli buffer and electrophoresed for immunoblot detection of TG2. Cell equivalent quantities of total and bound samples were electrophoresed to facilitate comparison of GTP bound versus total. […] Experiments were performed as described in FIGS. 31 (F) and (G).

TS543 neurospheres = assay: Neurosphere growth, TS543 (mesenchymal); assay type: cell-based, human; settings: 25 μM, 2 weeks
Text: Neurosphere cultures. TS543, TS565 and TS676, which represent the mesenchymal, proneural and classical glioblastoma subtypes respectively, based on transcriptomic and genomic analysis, were obtained from C. Brennan through the Monoclonal Antibody Core Facility at Memorial Sloan Kettering Cancer Center (Brennan, C. et al., PLoS One 4(11):e7752, 2009; Pyonteck, S. M. et al., Nature Med. 19(10):1264-72, 2013; Rohle, D. et al., Science 340(6132):626-30, 2013) and maintained in NeuroCult™ NS-A Proliferation Kit (Human) (Stem Cell Technologies) according to manufacturer's instructions. (NeuroCult Medium was supplemented with 20 ng/mL FGF, 50 ng/mL EGF and 0.0002% Heparin). To prevent neurosphere attachment to the bottom of the cell culture plates, Poly 2-hydroxyethyl methacrylate (PHM) was used. 6-well plates were coated with 1 mL/well of 1% PHM in ethanol (w/v). The plates were air dried in a sterile environment overnight and washed once with PBS and they were kept in the fridge in a sterile environment until use. For passaging, neurospheres were triturated according to instructions and 5,000 cells were seeded in each well in 2 mL medium. For treatments with TG2 inhibitors, cells were inoculated in medium containing 25 μM TG2 inhibitor or DMSO control. 200 μL of medium containing the 25 μM TG2 inhibitor or DMSO was added every other day. At the end of 2 weeks, 20-50 random microscopic images were captured for each group. The average volume of each sphere image was determined using Image J by a person blinded for neurosphere lines and treatments and volumes were calculated from the area data and used for comparison.

SCC-13 cells = assay: Spheroid formation / survival assay, SCC-13 cells (ECS cells); assay type: cell-based, human; settings: for spheroid formation (cancer stem cell survival): 8 d spheroids, 20 μM, 48 h
Method: Spheroid formation assay. Cells, maintained as monolayer cultures in growth medium consisting of DMEM (Invitrogen, Frederick, Md.) supplemented with 4.5 mg/ml D-glucose, […] L-glutamine, […] sodium pyruvate, and 5% fetal calf serum, were harvested, collected by centrifugation, and resuspended in spheroid medium comprising DMEM/F12 (1:1) (DMT-10-090-CV, Mediatech Inc., Manassas, Va.) supplemented with 2% B27 serum-free supplement (17504-044, Invitrogen, Frederick, Md.), 20 ng/ml EGF (E4269, Sigma, St. Louis, Mo.), 0.4% bovine serum albumin (B4287, Sigma) and 4 μg/ml insulin (19278 Sigma, St. Louis, Mo.). The cells (40,000) were plated in 9.6 cm^2 wells in Costar six well ultra-low attachment cluster dishes (4371, Corning, Tewksbury, Mass.). Spheroid size and number was monitored with time in culture as previously described (Adhikary, G. et al., PLoS One 8:e84324, 2013).
Spheroid formation assay. Spheroid formation assays were exactly as outlined previously (Adhikary, G. et al., PLoS ONE 8:e84324, 2013), except that the spheroids were grown in six well ultra-low attachment Costar cluster dishes (4371, Corning, Tewksbury, Mass.).
Spheroid formation assay. Spheroid formation assays were as reported previously (Adhikary, G. et al., PLoS One 8:e84324, 2013), except that the spheroids were grown in 6-well ultralow attachment Costar cluster dishes (Corning).

SMILES | conformation of inhibitor-bound TG2 (purified human TG2) | TG2 GTP binding (endogenous TG2) | sphere growth, TS543 (TS543 neurospheres) | spheroid number, formation from single cells (SCC-13 cells; 10 or 20 μM single addition, 0-14 days, after day eight) | spheroid formation (cancer stem cell survival) (SCC-13 cells) | spheroid number, pre-formed spheroids (SCC-13 cells; spheroids grown for 8 days, then treated)
C=CC(=O)NCCCC[C@H](NC(=O)OCc1ccccc1)C(=O)NCCOCCOCCNS(=O)(=O)c1cccc2c(N(C)C)cccc12 [NC9] | open conformation | reduced TG2 GTP binding | suppressed sphere growth | selectively declined | inhibited spheroid formation | reduced spheroid number
C=CC(=O)NCCCC[C@H](NC(=O)OCc1ccccc1)C(=O)N1CCN(S(=O)(=O)c2cccc3c(N(C)C)cccc23)CC1 [VA4, (S)-benzyl(6-acrylamido-1-(4-((5-(dimethylamino)naphthalen-1-yl)sulfonyl)piperazin-1-yl)-1-oxohexan-2-yl)carbamate] | open conformation | reduced TG2 GTP binding | suppressed sphere growth | – | inhibited spheroid formation | –
C=CC(=O)NCCCC[C@H](NC(=O)OCc1ccccc1)C(=O)N1CCN(C(=O)c2cc3ccc(O)cc3oc2=O)CC1 [VA5, (S)-Benzyl(6-acrylamido-1-(4-(7-hydroxy-2-oxo-2H-chromene-3-carbonyl)piperazin-1-yl)-1-oxohexan-2-yl)carbamate] | open conformation | reduced TG2 GTP binding | promoted growth | – | inhibited spheroid formation | –

Source: US10894777B2, “TG2 inhibitor piperazine compounds and uses thereof” (UNIVERSITY OF OTTAWA, priority 2016, dated 2021)
